From patent US6579856B2, “Inhibition of stress activated protein kinase (SAPK) pathway and sensitization of cells to cancer therapies” (priority 1997, dated 2003)
Like-named read-outs stand apart in the source and are kept apart here.

Assays:
Assay type in all cases: cell-based
T98G cells = experiment: PCR-stop assay of cisplatin-DNA adduct formation and repair
Text: The PCR-stop assay was used to quantitate cisplatin-DNA adduct formation and subsequent repair (Horton et al., Nucl. Acids. Res. 23:3810-3815 (1995), which is incorporated herein by reference). The assay is based on the observation that the efficiency of amplification of cisplatin-treated DNA is inversely proportional to the degree of platination. […] DNA was amplified quantitatively to produce a 2.7 kb product of the hypoxanthine phosphoribosyl transferase (HPRT) gene and a 0.15 kb nested fragment of the HPRT gene using ^32P-end labeled primers: 5′-[…]-3′(5′ primer; SEQ ID NO: 3) and 5′-[…]-3′ (3′ primer; SEQ ID NO: 4), for the 2.7 kb product; 5′-[…]-3′(5′ nested primer; SEQ ID NO: 5) and the above 3′ primer (SEQ ID NO: 4) for the 0.15 kb product. The 0.15 kb product contains undetectable levels of DNA damage under the present conditions and serves as an internal PCR control and as the basis for normalization of the amount of amplification of the 2.7 kb product. The number of lesions per 2.7 kb product was calculated as […] (cpm damaged DNA/cpm undamaged DNA).
As a control, […], which inhibits DNA repair by inhibiting ADP-ribosylation, was added with cisplatin.

SAPK (JNK) = SAPK (JNK) assay in T98G cells; settings: for increase in SAPK (JNK) activity: T98G cells incubated with 250, 500 or 1000 μM for 1 hr
Method: T98G glioblastoma cells were maintained in Dulbecco's modified minimal medium containing 5% fetal calf serum. SAPK (JNK) assays were performed as described by Hibi et al. (supra, 1993). c-jun and dn-jun expression were quantitated using the methods and antibodies described by Grover-Bardwick et al. (Carcinogenesis 15:1667-1674 (1994), which is incorporated herein by reference).
Cisplatin, but not transplatin, forms covalent crosslinks between adjacent guanine or guanine-adenine residues. […] As a control, UV-C irradiation was performed and similarly produced a dose-dependent increase in SAPK activity.

T98G glioblastoma cells = experiment: Cell viability (MTS method), T98G cells; settings: for IC50: 1 hr exposure, viability 5 days later, read-out: IC-50 for cisplatin
Method: (§1) Cell viability was determined using the MTS method (Promega Corp.; Madison Wis.), measuring the […] of the formazan product 1 hr after adding the MTS (Gjerset et al., Mol. Carcin. 14:275-285 (1995), which is incorporated herein by reference). Cells were seeded into 96 well plates. After 24 hr, various concentrations of cisplatin or transplatin was added and incubation was continued for 1 hr. Medium was then removed and replaced with fresh medium and cell viability was determined 5 days later. Experiments were performed in quadruplicate; cell viability is expressed as the ratio of the viable cells following treatment to viable untreated cells.
The IC-50 for cisplatin was determined using the T98G cells that express dn-jun, control T98G cells and T98G cells stably transfected with the corresponding empty vector. […] In comparison, expression of dn-jun in T98G cells decreased the IC-50 to 21 μM, which represents a 7-fold increase in sensitivity.

[1] = test system: PC3 prostate carcinoma cells; experiment: Cell viability, PC3 cells; settings: for IC50: read-out: IC-50 (cisplatin)
Method: as §1
PC3 prostate carcinoma cells were genetically modified to express dn-jun or a second dominant negative c-jun, Tam-67, both of which were under control of the metallothionein promoter (Brown et al., Oncogene 9:791-799 (1994), which is incorporated herein by reference).

AP-1 = experiment: Basal AP-1 activity in dn-jun transfected T98G cells; settings: T98G cells stably expressing dn-jun
Text: (§2) T98G cells were stably transfected with a cDNA encoding the dn-jun (Smeal et al., supra, 1991; Smeal et al., supra, 1992) and clonal lines were obtained. Expression of dn-jun had no effect on basal AP-1 activity or on the enzyme activity of SAPK. In contrast, dn-jun expression inhibited phosphorylation-dependent activation of transcription.

[2] = test system: phosphorylation-dependent activation of transcription; experiment: Phosphorylation-dependent activation of transcription in dn-jun transfected T98G cells; settings: T98G cells stably expressing dn-jun
Text: as §2

[3] = test system: U87 human glioblastoma cells; experiment: Cell viability, U87 cells; settings: U87 cells expressing dn-jun vs parental U87 cells
Method: as §1
(§3) In other experiments, U87 human glioblastoma cells and MCF-7 breast cancer cells were stably transfected with the vector expressing dn-jun and clonal lines were isolated.

[4] = test system: MCF-7 breast cancer cells; experiment: Cell viability, MCF-7 cells; settings: MCF-7 cells expressing dn-jun vs parental cells
Method: as §1, §3

[5] = ABZ added with cisplatin, 6 hr recovery period

## Nc1ccc(-c2ccc(N)cc2N)cc1 [ABZ, 2-aminobenzidine]
T98G cells; [5]
  DNA repair: no repair was observed
  level of DNA damage: substantially increased

## N.N.[Cl][Pt][Cl] [cisplatin]
SAPK (JNK)
  increase in SAPK (JNK) activity: up to 10 fold
T98G glioblastoma cells; T98G cells expressing dn-jun
  IC50: 21 µM
T98G glioblastoma cells; control (untransfected) T98G cells
  IC50: 147 µM
T98G cells; DNA isolated immediately after 1 hr treatment with 0, 100 or 200 μM
  DNA damage: increasing levels of DNA damage
[1]; PC3 cells expressing dn-jun
  IC50: 18 µM
[1]; control PC3 cells
  IC50: 109 µM

## N.N.[Cl][Pt+2][Cl] [transplatin]
SAPK (JNK)
  increase in SAPK (JNK) activity: no effect was observed

B1: dn-jun: dominant negative mutant of c-jun containing alanine-63 and alanine-73 substitutions; cannot be phosphorylated by SAPK (protein, UniProt P05412 1-331, looked up, variant S63A S73A)
Transcription factor Jun: MTAKMETTFYDDALNASFLPSESGPYGYSNPKILKQSMTLNLADPVGSLKPHLRAKNSDLLTAPDVGLLKLAAPELERLIIQSSNGHITTTPTPTQFLCPKNVTDEQEGFAEGFVRALAELHSQNTLPSVTSAAQPVNGAGMVAPAVASVAGGSGSGGFSASLHSEPPVYANLSNFNPGALSSGGGAPSYGAAGLAFPAQPQQQQQPPHHLPQQMPVQHPRLQALKEEPQTVPEMPGETPPLSPIDMESQERIKAERKRMRNRIAASKCRKRKLERIARLEEKVKTLKAQNSELASTANMLREQVAQLKQKVMNHVNSGCQLMLTQQLQTF
SAPK (JNK); T98G cells stably expressing dn-jun
  enzyme activity of SAPK: no effect
AP-1
  basal AP-1 activity: no effect
[2]
  phosphorylation-dependent activation of transcription: inhibited
[3]
  increased sensitivity to cisplatin: 2.5 fold
[4]
  increased sensitivity to cisplatin: 3 fold
[1]; PC3 cells expressing dn-jun vs control cells
  increased sensitivity to cisplatin: greater than 7 fold
[1]; PC3 cells expressing dn-jun vs vector control cells
  increased sensitivity to cisplatin: greater than 9 fold

B2: c-jun: c-jun transcription factor, the SAPK substrate, with increased expression in T98G cells (protein, UniProt P05412 1-331, looked up)
Transcription factor Jun: MTAKMETTFYDDALNASFLPSESGPYGYSNPKILKQSMTLNLADPVGSLKPHLRAKNSDLLTSPDVGLLKLASPELERLIIQSSNGHITTTPTPTQFLCPKNVTDEQEGFAEGFVRALAELHSQNTLPSVTSAAQPVNGAGMVAPAVASVAGGSGSGGFSASLHSEPPVYANLSNFNPGALSSGGGAPSYGAAGLAFPAQPQQQQQPPHHLPQQMPVQHPRLQALKEEPQTVPEMPGETPPLSPIDMESQERIKAERKRMRNRIAASKCRKRKLERIARLEEKVKTLKAQNSELASTANMLREQVAQLKQKVMNHVNSGCQLMLTQQLQTF
T98G glioblastoma cells; increased expression of c-jun in T98G cells
  viability of cells to cisplatin exposure: somewhat increased
